Data published in US6620593B1, “Method for safety evaluation of chemical compound using recombinant yeast expressing human cytochrome P450” (Sumitomo Chemical Company, Limited, priority 1993, dated 2003).
Where two headings read alike, the source gives them in different places.

How the values were obtained:
[1] = biological target: T1, human P450 1A2 (Homo sapiens, UniProt P05177); test: Metabolism (hydroxylation) of substrates using transformed yeast cells or their microsomal fractions expressing human P450 1A2 and yeast NADPH-P450 reductase; details: microsomes
T1 sequence (P05177 1-516): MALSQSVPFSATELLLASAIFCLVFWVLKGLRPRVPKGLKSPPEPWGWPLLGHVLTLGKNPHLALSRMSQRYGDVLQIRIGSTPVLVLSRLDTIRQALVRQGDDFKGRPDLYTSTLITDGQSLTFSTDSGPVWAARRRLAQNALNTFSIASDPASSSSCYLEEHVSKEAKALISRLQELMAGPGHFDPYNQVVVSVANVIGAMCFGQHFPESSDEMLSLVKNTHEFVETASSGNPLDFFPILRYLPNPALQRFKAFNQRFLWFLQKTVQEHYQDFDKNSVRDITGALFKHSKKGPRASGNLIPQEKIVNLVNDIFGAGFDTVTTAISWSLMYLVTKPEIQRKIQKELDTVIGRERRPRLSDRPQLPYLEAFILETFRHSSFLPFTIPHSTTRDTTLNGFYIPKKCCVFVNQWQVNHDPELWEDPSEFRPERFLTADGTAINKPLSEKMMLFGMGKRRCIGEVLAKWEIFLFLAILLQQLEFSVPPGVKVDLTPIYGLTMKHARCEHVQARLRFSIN
Experimental: (§1) Then 2 ml of dichloromethane was added.

[2] = biological target: human P450 2C9 (Homo sapiens, UniProt P11712); test: Metabolism (hydroxylation) of substrates using transformed yeast cells or microsomal fractions expressing human P450 2C9; details: microsomes
Sequence of human P450 2C9 (P11712 whole entry): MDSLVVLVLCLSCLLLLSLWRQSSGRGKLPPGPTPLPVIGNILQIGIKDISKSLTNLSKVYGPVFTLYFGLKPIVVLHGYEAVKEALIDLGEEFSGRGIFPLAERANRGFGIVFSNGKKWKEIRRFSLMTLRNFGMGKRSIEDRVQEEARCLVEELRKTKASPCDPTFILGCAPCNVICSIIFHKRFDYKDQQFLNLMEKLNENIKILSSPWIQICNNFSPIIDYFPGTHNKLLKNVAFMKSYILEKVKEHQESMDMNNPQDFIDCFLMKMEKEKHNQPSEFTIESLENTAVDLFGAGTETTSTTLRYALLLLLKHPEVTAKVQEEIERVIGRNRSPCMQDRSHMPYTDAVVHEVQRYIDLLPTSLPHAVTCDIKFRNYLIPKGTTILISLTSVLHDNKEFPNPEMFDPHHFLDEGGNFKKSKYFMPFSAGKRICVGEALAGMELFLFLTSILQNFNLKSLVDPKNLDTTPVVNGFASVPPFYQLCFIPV
Experimental: as §1

[3] = biological target: human P450 2E1 (Homo sapiens, UniProt P05181); test: Metabolism (hydroxylation) of substrates using transformed yeast cells or microsomal fractions expressing human P450 2E1; details: microsomes
Sequence of human P450 2E1 (P05181 whole entry): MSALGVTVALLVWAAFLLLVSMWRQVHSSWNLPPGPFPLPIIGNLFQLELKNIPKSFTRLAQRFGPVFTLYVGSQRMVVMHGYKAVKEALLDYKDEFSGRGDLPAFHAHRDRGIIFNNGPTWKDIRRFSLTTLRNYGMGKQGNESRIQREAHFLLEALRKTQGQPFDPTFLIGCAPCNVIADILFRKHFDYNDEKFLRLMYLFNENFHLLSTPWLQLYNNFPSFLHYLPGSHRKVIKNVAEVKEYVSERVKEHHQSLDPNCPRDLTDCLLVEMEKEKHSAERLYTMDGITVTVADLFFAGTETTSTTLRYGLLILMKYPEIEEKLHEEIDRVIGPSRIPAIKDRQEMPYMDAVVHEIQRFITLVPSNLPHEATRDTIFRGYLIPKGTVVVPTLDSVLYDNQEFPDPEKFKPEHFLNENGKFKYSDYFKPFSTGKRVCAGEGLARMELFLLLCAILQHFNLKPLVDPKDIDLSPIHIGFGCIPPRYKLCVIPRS
Experimental: as §1

[4] = test system: human P450 3A4; test: Metabolism (hydroxylation) of substrates using transformed yeast cells or microsomal fractions expressing human P450 3A4; details: microsomes
Experimental: as §1

[5] = test system: human P450 2A6; test: Metabolism (hydroxylation) of substrates using transformed yeast cells or microsomal fractions expressing human P450 2A6; details: microsomes
Experimental: as §1

[6] = biological target: T2, human P450 2B6 (Homo sapiens, UniProt P20813); test: Metabolism (hydroxylation) of substrates using transformed yeast cells or microsomal fractions expressing human P450 2B6; details: microsomes
T2 sequence (P20813 1-491): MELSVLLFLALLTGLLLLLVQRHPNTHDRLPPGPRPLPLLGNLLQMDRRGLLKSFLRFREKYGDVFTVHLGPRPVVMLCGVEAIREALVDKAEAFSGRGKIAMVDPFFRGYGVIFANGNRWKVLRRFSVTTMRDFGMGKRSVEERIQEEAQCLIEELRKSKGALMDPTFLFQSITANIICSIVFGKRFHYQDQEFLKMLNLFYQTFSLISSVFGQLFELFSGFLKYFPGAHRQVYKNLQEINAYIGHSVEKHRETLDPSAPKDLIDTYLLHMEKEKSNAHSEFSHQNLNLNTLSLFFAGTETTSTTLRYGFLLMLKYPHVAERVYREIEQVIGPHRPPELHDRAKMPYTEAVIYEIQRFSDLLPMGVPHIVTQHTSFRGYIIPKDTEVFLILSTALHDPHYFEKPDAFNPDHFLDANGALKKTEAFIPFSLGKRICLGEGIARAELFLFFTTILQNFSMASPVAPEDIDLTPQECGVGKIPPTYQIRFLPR
Experimental: as §1

[7] = test system: human P450 2C8; test: Metabolism (hydroxylation) of substrates using transformed yeast cells or microsomal fractions expressing human P450 2C8; details: microsomes
Experimental: as §1

[8] = biological target: T3, human P450 2C18 (Homo sapiens, UniProt P33260); test: Metabolism (hydroxylation) of substrates using transformed yeast cells or microsomal fractions expressing human P450 2C18; details: microsomes
T3 sequence (P33260 26-490): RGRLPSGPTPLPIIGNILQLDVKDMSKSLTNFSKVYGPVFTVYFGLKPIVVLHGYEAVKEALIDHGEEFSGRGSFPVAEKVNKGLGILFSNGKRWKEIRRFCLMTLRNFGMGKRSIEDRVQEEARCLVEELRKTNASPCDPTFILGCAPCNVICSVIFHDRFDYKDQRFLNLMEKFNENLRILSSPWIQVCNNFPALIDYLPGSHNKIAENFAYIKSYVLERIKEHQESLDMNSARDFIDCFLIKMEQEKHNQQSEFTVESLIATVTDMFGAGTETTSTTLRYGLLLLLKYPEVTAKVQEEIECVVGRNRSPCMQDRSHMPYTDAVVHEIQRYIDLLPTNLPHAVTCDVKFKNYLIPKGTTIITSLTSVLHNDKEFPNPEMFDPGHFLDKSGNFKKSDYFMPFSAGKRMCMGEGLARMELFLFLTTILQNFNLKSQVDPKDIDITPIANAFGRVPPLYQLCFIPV
Experimental: as §1

[9] = biological target: human P450 2C19 (Homo sapiens, UniProt P33261); test: Metabolism (hydroxylation) of substrates using transformed yeast cells or microsomal fractions expressing human P450 2C19; details: microsomes
Sequence of human P450 2C19 (P33261 whole entry): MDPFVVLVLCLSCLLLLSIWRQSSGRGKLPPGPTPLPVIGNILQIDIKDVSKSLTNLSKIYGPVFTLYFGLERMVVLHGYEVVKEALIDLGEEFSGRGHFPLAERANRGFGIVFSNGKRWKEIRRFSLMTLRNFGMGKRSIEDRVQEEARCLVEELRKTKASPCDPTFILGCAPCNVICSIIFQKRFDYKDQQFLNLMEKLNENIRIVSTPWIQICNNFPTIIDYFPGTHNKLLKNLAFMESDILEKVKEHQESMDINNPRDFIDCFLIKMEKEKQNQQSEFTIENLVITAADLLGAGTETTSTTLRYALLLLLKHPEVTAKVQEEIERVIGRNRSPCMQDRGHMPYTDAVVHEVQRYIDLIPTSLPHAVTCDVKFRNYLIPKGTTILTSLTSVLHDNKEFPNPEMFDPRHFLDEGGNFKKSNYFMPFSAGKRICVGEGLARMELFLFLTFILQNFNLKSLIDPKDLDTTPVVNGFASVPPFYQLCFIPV
Experimental: as §1

[10] = test system: human P450 2D6; test: Metabolism (hydroxylation) of substrates using transformed yeast cells or microsomal fractions expressing human P450 2D6; details: microsomes
Experimental: as §1

[11] = biological target: T4, human P450 1A1 (Homo sapiens, UniProt P04798); details: microsomes
T4 sequence (P04798 1-512): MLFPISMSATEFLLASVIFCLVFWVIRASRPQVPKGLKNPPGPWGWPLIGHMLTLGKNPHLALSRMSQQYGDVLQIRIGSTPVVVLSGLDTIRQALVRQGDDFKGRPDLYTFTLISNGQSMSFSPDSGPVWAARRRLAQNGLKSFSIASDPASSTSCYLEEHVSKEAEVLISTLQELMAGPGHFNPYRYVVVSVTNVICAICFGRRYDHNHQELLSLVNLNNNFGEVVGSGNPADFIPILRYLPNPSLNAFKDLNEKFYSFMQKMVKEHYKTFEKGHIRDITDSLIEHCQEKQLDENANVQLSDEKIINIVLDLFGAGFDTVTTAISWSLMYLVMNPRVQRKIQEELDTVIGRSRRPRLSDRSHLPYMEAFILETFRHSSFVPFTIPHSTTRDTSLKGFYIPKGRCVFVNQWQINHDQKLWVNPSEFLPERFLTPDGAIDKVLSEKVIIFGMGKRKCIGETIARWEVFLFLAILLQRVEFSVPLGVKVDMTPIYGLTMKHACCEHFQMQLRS
Experimental: (§2) To the supernatant, 2 ml of dichloromethane was added. After sufficient stirring, the dichloromethane layer was recovered by centrifugation (5000×g, 10 min), and the solvent was evaporated under reduced pressure. The resultant residue was dissolved in 100 μl of acetonitrile, and the solution was analyzed by HPLC under the following conditions.
(§3) Then 2 ml of dichloromethane was added. After sufficient stirring, the solution was centrifuged again (5000×g, 10 min). The dichloromethane layer was recovered from the separated layer and the solvent was evaporated under reduced pressure. The resultant residue was dissolved in 100 μl of acetonitrile, and the solution was analyzed by HPLC under the following conditions.
Then 2 ml of dichloromethane was added to the supernatant and vigorously stirred and centrifuged (5000×g, 10 min). The dichloromethane layer was recovered from the separated layer, then evaporated under reduced pressure. The obtained residue was dissolved in 100 μl of acetonitrile, and the solution was analyzed by HPLC under the following conditions.
Then 2 ml of dichloromethane was added to the solution, and the solution was stirred vigorously and centrifuged (15,000×g, 5 min). The dichloromethane layer was recovered, and the solvent was removed under reduced pressure. The obtained residue was dissolved in 100 μl of acetonitrile and the solution was subjected to analysis by HPLC under the same conditions as above.
Then the solution was centrifuged (5000×g, 10 min) to give a supernatant. The obtained supernatant solution was subjected to the HPLC analysis under the following conditions.
(§4) Then the solution was centrifuged (5000×g, 10 min) to give a supernatant. 62.5 μl of 15% trichloroacetic acid and 2 ml of chloroform were added to the obtained supernatant solution, and the resultant solution was stirred well. The chloroform layer was recovered from the separated layer. Then 4 ml of sodium hydroxide solution containing 0.1 M NaCl was added to the solution and centrifuged again (5000×g, 10 min).
Then perchlorate was added to the solution, so that the final concentration of the perchlorate was 10% (v/v). The solution was sufficiently stirred and centrifuged (15,000×g, 15 min) to give the supernatant. The obtained supernatant was subjected to HPLC analysis according to the following conditions.
Then the solution was diluted with equal volume of methanol, sufficiently stirred and centrifuged (15,000×g, 5 min) to give the supernatant. The obtained supernatant was subjected to HPLC analysis according to the following conditions.

[12] = test system: other human P450 molecular species
Experimental: as §2, §3, §4
Then perchlorate was added to the solution, so that the final concentration of the perchlorate was 10% (v/v). The solution was sufficiently stirred and centrifuged (15,000×g, 15 min) to give the supernatant. […]

| Hydroxylation activity, human P450 1A2 [1] | Hydroxylation activity, human P450 2C9 [2] | Hydroxylation activity, human P450 2E1 [3] | Hydroxylation activity, human P450 3A4 [4] | Hydroxylation activity, human P450 2A6 [5] | Hydroxylation activity, human P450 2B6 [6] | Hydroxylation activity, human P450 2C8 [7] | Hydroxylation activity, human P450 2C18 [8] | Hydroxylation activity, human P450 2C19 [9] | Hydroxylation activity, human P450 2D6 [10] | Hydroxylation activity, human P450 1A1 [11] | Hydroxylated metabolite / hydroxylation activity with yeast expressing other human P450 than those named [12] | Hydroxylated metabolite / hydroxylation activity with yeast expressing other human P450 than those named ([12]; microsomes) | Compound |
| --- | --- | --- | --- | --- | --- | --- | --- | --- | --- | --- | --- | --- | --- |
| + + | + | + + | + | + + | + + + | + | + | + | + + | + + + |  |  | CCOc1ccc2ccc(=O)oc2c1 [7-Ethoxycoumarin] |
| + + + | + + | + + | + | + + | + + | + + | + + | + + | + + + | + + |  |  | CC(=O)Nc1ccccc1 [Acetanilide] |
| − | − | − | − | + + + | − | − | − | − | − | − | no activity |  | O=c1ccc2ccccc2o1 [Coumarin] |
| − |  | − |  | − | − | + | + | + + | − | − |  | not detected | CCCCNC(=O)NS(=O)(=O)c1ccc(C)cc1 [Tolbutamide] |
